The target of this test is T1, FLJ14797-derived protein (γ-tubulin ring complex protein) (Homo sapiens, UniProt Q9UGJ1).
T1 construct: histidine tag (N); FLAG tag (N); made in house; host or cells: cell-free protein synthesis system (PROTEIOS; TOYOBO) using wheat germ extracts
Kind of test: Biacore S51 surface plasmon resonance analysis of interaction between compound and immobilized FLJ14797-derived protein. Format: binding. Here is the method: Genes of interest in human full-length cDNA clones were subjected to BP reaction with a PCR cloning vector Gateway pDONR201 using Gateway system available from Invitrogen according to the kit's protocol to give an entry vector. pEU3-NII (TOYOBO) compatible with a cell-free protein synthesis system (PROTEIOS; TOYOBO) using wheat germ extracts was used as a source vector, from which a double-tag destination vector used as the destination vector of the Gateway system was prepared by introducing Gateway cassette with Gateway recombinant sequence into the pEU3-NII vector so that the Gateway system could be utilized, and further modifying the resulting vector by PCR so that peptides having histidine and FLAG tag sequences would be expressed in the N-terminal region of an expressed protein.
The prepared double-tag destination vector and entry vector were used to conduct […] using the Gateway system (Invitrogen) according to the protocol. The resulting product was transformed into Escherichia coli competent cells DH5α to select clones where the expression vector was introduced. Plasmids were prepared from the obtained clones using QIAfilter Midi kit (QIAGEN) according to the kit's protocol. The obtained plasmids were treated with phenol and chloroform according to the PROTEIOS (TOYOBO) protocol and subjected to the inactivation treatment of RNase to give purified expression plasmids.
Recombinant proteins were synthesized by the cell-free protein synthesis system (PROTEIOS; TOYOBO) using wheat germ extracts. mRNA was prepared according to the PROTEIOS protocol from the expression plasmids obtained by the method described in the paragraph 1. A 20-μg aliquot of the obtained mRNA was used to synthesize proteins in 2 wells of a 96-well micro titer plate according to the PROTEIOS protocol. The synthesized proteins were subjected to high-speed centrifugation treatment to remove precipitations. The obtained soluble fractions were purified using ANTI-FLAG M2 Affinity Gel (SIGMA) immobilizing thereon an anti-FLAG tag antibody according to the protocol to give purified proteins.
The surface of a CM5 sensor chip for S51 commercially available from Biacore was converted to NTA using IM EDC, 1.33 M NHS, and 16 mg/ml AB-NTA (pH 9.2) to make an NTA sensor chip for S51. The proteins expressed in the wheat germ system and purified with a FLAG tag were immobilized on this chip. The immobilization was performed by sequentially injecting 0.5 M NiCl2, 0.4 M EDC, […], a ligand (protein) solution, and 1 M ethanolamine (pH 8.5) into the passage system of Biacore S51. A running buffer used for the immobilization was PBS (pH 7.4). The ligand-immobilized sensor chip was used to conduct assay described below. A running buffer used was prepared by adding DMSO at the final concentration of 5% to HBS (10 mM HEPES and 150 mM NaCl, (pH 7.6)), 0.005% P20, and 100 uM mineral ion cocktail (Ca(OAc)2, Zn(OAc)2.2H2O, Cu(OAc)2.H2O, Co(OAc)2.4H2O, Mn(OAc)2.4H2O, Mg(OAc)2.4H2O, and FeCl3.6H2O). Compounds to be measured were prepared by making ½ serial dilutions (9 points) from 62.5 uM to 0.244 uM solutions. Solvents used for the compound solutions were prepared in the same composition as that of the running buffer. A solution containing only the solvents without the compound was prepared for zero-concentration measurement. […]

Where [1] appears, read: Biacore S51, FLJ14797-derived protein, same way as Example 1, Table 1, read-out: KD.

Like-named read-outs stand apart in the source and are kept apart here.

T1 sequence (Q9UGJ1 whole entry, one chain of several): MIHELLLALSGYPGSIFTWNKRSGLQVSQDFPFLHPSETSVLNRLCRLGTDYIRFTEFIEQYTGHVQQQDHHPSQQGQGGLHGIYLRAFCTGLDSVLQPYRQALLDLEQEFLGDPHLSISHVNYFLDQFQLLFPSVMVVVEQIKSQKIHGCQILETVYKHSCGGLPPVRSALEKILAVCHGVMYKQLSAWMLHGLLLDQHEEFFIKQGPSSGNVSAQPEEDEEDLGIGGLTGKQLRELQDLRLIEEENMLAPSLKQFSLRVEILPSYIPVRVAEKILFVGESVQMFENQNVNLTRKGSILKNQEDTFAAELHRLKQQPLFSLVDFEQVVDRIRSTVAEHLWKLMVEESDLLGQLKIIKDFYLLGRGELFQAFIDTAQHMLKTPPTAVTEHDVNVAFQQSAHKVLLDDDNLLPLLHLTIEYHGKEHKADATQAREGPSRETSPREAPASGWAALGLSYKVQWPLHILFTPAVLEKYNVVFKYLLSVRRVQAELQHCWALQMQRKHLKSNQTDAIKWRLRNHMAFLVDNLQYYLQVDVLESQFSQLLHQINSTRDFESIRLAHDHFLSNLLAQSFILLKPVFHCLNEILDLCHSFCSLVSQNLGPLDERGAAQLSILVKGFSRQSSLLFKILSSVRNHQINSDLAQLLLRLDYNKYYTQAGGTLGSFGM

As for `O=C1NC(=O)C(Cc2ccc(OCCOC3CCCC3)cc2)S1` (centres unmarked) [Compound A-3], under setting [1], the Kd was found to be 21.6 µM. With `CC1(OCCOc2ccc(CC3SC(=O)NC3=O)cc2)CCCCC1` (centres unmarked) [Compound A-1, 5-{4-[2-(1-methyl-cyclohexyloxy)-ethoxy]-benzyl}-thiazolidine-2,4-dione], the Kd under setting [1] was found to be 8.43 µM. `O=C1NC(=O)C(Cc2ccc(OCCOC3CCCCC3)cc2)S1` (centres unmarked) [Compound A-2]: the Kd under setting [1] worked out at 13.8 µM.

As to `CCc1ccc(CCOc2ccc(CC3SC(=O)NC3=O)cc2)nc1` (centres unmarked) [pioglitazone, reference compound], the Kd (Biacore S51, FLJ14797-derived protein immobilized on NTA chip, compound 62.5 uM to 0.244 uM, Example 1, read-out: binding dissociation constant KD) was found to be 9.04 µM. The “interaction with FLJ14797-derived protein (specificity of binding)” value (Biacore S51, binding dose-dependent and saturated at high doses) is “specific”.
